The test deals with T1, hGPR120 (Homo sapiens, UniProt Q5NUL3).
T1 construct: expressed in transfected cells; host or cells: CHO-K1
T1 sequence (Q5NUL3 1-361): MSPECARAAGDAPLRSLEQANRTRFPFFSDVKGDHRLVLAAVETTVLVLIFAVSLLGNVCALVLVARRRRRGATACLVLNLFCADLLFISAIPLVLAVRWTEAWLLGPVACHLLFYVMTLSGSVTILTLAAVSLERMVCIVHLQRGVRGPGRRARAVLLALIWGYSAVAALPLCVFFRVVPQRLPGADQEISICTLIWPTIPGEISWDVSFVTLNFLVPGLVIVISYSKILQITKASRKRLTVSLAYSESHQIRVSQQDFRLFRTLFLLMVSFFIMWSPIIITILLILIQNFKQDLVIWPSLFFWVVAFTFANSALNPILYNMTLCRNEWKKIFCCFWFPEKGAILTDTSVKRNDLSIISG
Briefly: Measurement of Activity of GPR120 Agonist (Cell-Based Assay), Calcium 5 dye fluorescence. As to conditions: CHO-K1 cells expressing Ga16 and hGPR120. An outline of the steps: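 Fluorescence increase (Ex 485 nm, Em 525 nm) after agonist addition was calculated as relative percent of the 1% DMSO-only signal. Cells were CHO-K1 stably carrying Gα16 plus human GPR120, dye-loaded for 1 h after overnight (18 h) culture.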

pEC50: −log10 of the molar value.

As usually defined, the pEC50 is the EC50 on a negative log10 scale, so that one unit is a factor of ten.

Take `O=C(O)CC1CCN(c2c(F)cc(-c3cccc(OCC4CCC4)n3)cc2F)CC1` [Example 308, 2-[1-[4-[6-(cyclobutylmethoxy)-2-pyridyl]-2,6-difluoro-phenyl]-4-piperidyl]acetic acid]: the pEC50 is 5.70 to 6.70.

As for `O=C(O)CCCC(F)(F)c1ccc(-c2cccnc2SC2CCC2)cc1` [Example 178, 5-[4-(2-cyclobutylsulfanyl-pyridin-3-yl)-phenyl]-5,5-difluoro-pentanoic acid], the pEC50 was > 6.70.

Turning to `O=C(O)CCCCNc1c(F)cc(-c2cccc(OCC3CC3)n2)cc1F` [Example 98, 5-[4-[6-(cyclopropylmethoxy)-2-pyridyl]-2,6-difluoro-anilino]pentanoic acid], the pEC50 is > 6.70.

On to `O=C(O)COCC(F)(F)c1ccc(-c2cccc(OC3CCC3)n2)cc1` [Example 174, {2-[4-(6-cyclobutoxy-pyridin-2-yl)-phenyl]-2,2-difluoro-ethoxy}-acetic acid], for which the pEC50 is 5.70 to 6.70.

On to `CC(C)Sc1ncccc1-c1cc(F)c2c(c1)CCC(CCC(=O)O)S2` (centres unmarked) [Example 440, 3-[8-fluoro-6-(2-isopropylsulfanyl-3-pyridyl)thiochroman-2-yl]propanoic acid], for which the pEC50 is 5.70 to 6.70.

As for `O=C(O)C1CC1COc1c(F)cc(-c2csc(OC3CCC3)n2)cc1F` (centres unmarked) [Example 551, 2-[4-(2-cyclobutoxy-thiazol-4-yl)-2,6-difluoro-phenoxymethyl]-cyclopropanecarboxylic acid], the negative logarithm of the EC50 (pEC50) is 5.70 to 6.70.

On to `O=C(O)CCC1CC1c1c(F)cc(-c2cccnc2SC2CCCC2)cc1F` (centres unmarked) [Example 182, 3-{2-[4-(2-cyclopentylsulfanyl-pyridin-3-yl)-2,6-difluoro-phenyl]-cyclopropyl}-propanoic acid], for which the pEC50 was > 6.70.

Turning to `CCCSc1ncccc1-c1cc(F)c(OCc2cc(O)no2)c(F)c1` [Example 66, 5-[[2,6-difluoro-4-(2-propylsulfanyl-3-pyridyl)phenoxy]methyl]isoxazol-3-ol], the negative logarithm of the EC50 (pEC50) was > 6.70.

Take `Cc1c(OC2CCC2)cccc1-c1cc(F)c(N2CCC(CC(=O)O)CC2)c(F)c1` [Example 310, 2-[1-[4-[3-(cyclobutoxy)-2-methyl-phenyl]-2,6-difluoro-phenyl]-4-piperidyl]acetic acid]: the pEC50 was 4.70 to 5.70.

Turning to `O=C(O)CC1CCN(c2c(F)cc(-c3cccc(OC4CCC4)c3)cc2F)CC1` [Example 300, 2-[1-[4-[3-(cyclobutoxy)phenyl]-2,6-difluoro-phenyl]-4-piperidyl]acetic acid], the pEC50 is 5.70 to 6.70.

As to `Cc1cc(OC2CCC2)nc(-c2cc(F)c(OCC3CC3C(=O)O)c(Cl)c2)n1` (centres unmarked) [Example 553, 2-[2-chloro-4-(4-cyclobutoxy-6-methyl-pyrimidin-2-yl)-6-fluoro-phenoxymethyl]-cyclopropanecarboxylic acid], the pEC50 is 5.70 to 6.70.

In the case of `O=C(O)CCC1CCc2cc(-c3cccc(OCC4CC4)n3)ccc2O1` (centres unmarked) [Example 445, 3-[6-[6-(cyclopropylmethoxy)-2-pyridyl]chroman-2-yl]propanoic acid], the pEC50 is > 6.70.

`CC(C)Oc1cncc(-c2cc(F)c(N3CCC(CC(=O)O)C3)c(F)c2)n1` (centres unmarked) [Example 586, {1-[2,6-difluoro-4-(6-isopropoxy-pyrazin-2-yl)-phenyl]-pyrrolidin-3-yl}-acetic acid]: the pEC50 is > 6.70.

With `CC(C)Oc1cccc(-c2cc(F)c(N3CC(CC(=O)O)C3)c(F)c2)n1` [Example 115, 2-[1-[2,6-difluoro-4-(6-isopropoxy-2-pyridyl)phenyl]azetidin-3-yl]acetic acid], the pEC50 was > 6.70.

For `O=C(O)CCCCc1c(F)cc(-c2cccc(OC3CCCC3)n2)cc1F` [Example 33, 5-[4-(6-cyclopentoxy-2-pyridyl)-2,6-difluoro-phenyl]pentanoic acid], the pEC50 was > 6.70.

Turning to `O=C(O)CCCOc1c(F)cc(-c2occc2COCC2CC2)cc1F` [Example 387, 4-[4-[3-(cyclopropylmethoxymethyl)-2-furyl]-2,6-difluoro-phenoxy]butanoic acid], the negative-log EC50 (pEC50) was > 6.70.

As to `O=C(O)CCCOc1c(F)cc(-c2cc(F)cc(OC3CCC3)c2)cc1Cl` [Example 389, 4-[2-chloro-4-[3-(cyclobutoxy)-5-fluoro-phenyl]-6-fluoro-phenoxy]butanoic acid], the pEC50 is > 6.70.

In the case of `COc1ccc(-c2cc(F)c(OCCCC(=O)O)c(F)c2)nc1OC1CCC1` [Example 455, 4-[4-[6-(cyclobutoxy)-5-methoxy-2-pyridyl]-2,6-difluoro-phenoxy]butanoic acid], the pEC50 is > 6.70.

With `CCCSc1cccc(-c2cc(F)c(N3CCC(CC(=O)O)CC3)c(F)c2)n1` [Example 298, 2-[1-[2,6-difluoro-4-(6-propylsulfanyl-2-pyridyl)phenyl]-4-piperidyl]acetic acid], the pEC50 was 5.70 to 6.70.

For `c1cnc(SC2CCC2)c(-c2ccc(CCCc3nnn[nH]3)cc2)c1` [Example 26, 2-cyclobutylsulfanyl-3-{4-[3-(1H-tetrazol-5-yl)propyl]phenyl}pyridine], the pEC50 is 5.70 to 6.70.

Take `Cc1cc(-c2cc(F)c(OCCCC(=O)O)c(Cl)c2)nc(OC2CCC2)n1` [Example 392, 4-[2-chloro-4-[2-(cyclobutoxy)-6-methyl-pyrimidin-4-yl]-6-fluoro-phenoxy]butanoic acid]: the pEC50 is > 6.70.

In the case of `CN(CCCC(=O)O)c1c(F)cc(-c2nccc(OCC3CC3)n2)cc1F` [Example 490, 4-[4-[4-(cyclopropylmethoxy)pyrimidin-2-yl]-2,6-difluoro-N-methyl-anilino]butanoic acid], the pEC50 was > 6.70.

With `O=C(O)CC1CCN(c2c(F)cc(-c3csc(COCC4CC4)c3)cc2F)CC1` [Example 567, {1-[4-(5-cyclopropylmethoxymethyl-thiophen-3-yl)-2,6-difluoro-phenyl]-piperidin-4-yl}-acetic acid], the pEC50 was 5.70 to 6.70.

As to `O=C(O)CCC1CCN(c2c(F)cc(-c3cccc(C4CCC4)n3)cc2F)CC1` [Example 621, 3-{1-[4-(6-cyclobutyl-pyridin-2-yl)-2,6-difluoro-phenyl]-piperidin-4-yl}-propionic acid], the pEC50 was 5.70 to 6.70.

Regarding `CC(C)N(C)c1ccccc1-c1cc(F)c(N(C)CCCC(=O)O)c(F)c1` [Example 223, 4-{[3,5-difluoro-2′-(isopropyl-methyl-amino)-biphenyl-4-yl]-methyl-amino}-butyric acid], the pEC50 is > 6.70.

For `COc1cccc2c1ccn2-c1cc(F)c(OCCCC(=O)O)c(F)c1` [Example 478, 4-[2,6-difluoro-4-(4-methoxyindol-1-yl)phenoxy]butanoic acid], the pEC50 was 5.70 to 6.70.

As to `O=C(O)CC1CCN(c2c(F)cc(-n3ncc4ccc(OC5CCC5)cc43)cc2F)C1` (centres unmarked) [Example 494, 2-[1-[4-[6-(cyclobutoxy)indazol-1-yl]-2,6-difluoro-phenyl]pyrrolidin-3-yl]acetic acid], the pEC50 was 5.70 to 6.70.

With `Cc1ncc(-c2cc(F)c(N3CCC(CC(=O)O)CC3)c(F)c2)nc1OC1CCC1` [Example 361, 2-[1-[4-[6-(cyclobutoxy)-5-methyl-pyrazin-2-yl]-2,6-difluoro-phenyl]-4-piperidyl]acetic acid], the negative logarithm of the EC50 (pEC50) is 5.70 to 6.70.

Regarding `O=C(O)CC1CCN(c2c(F)cc(-c3nccc(Oc4cccnc4)n3)cc2F)CC1` [Example 512], the pEC50 is 5.70 to 6.70.

Regarding `CCSc1ncccc1-c1cc(F)c(N(C)CCCC(=O)O)c(F)c1` [Example 208, 4-{[4-(2-ethylsulfanyl-pyridin-3-yl)-2,6-difluoro-phenyl]-methyl-amino}-butyric acid], the pEC50 was > 6.70.

Regarding `CC(C)Oc1ncccc1-c1cc(F)c(OCc2cc(O)no2)c(F)c1` [Example 69, 5-[[2,6-difluoro-4-(2-isopropoxy-3-pyridyl)phenoxy]methyl]isoxazol-3-ol], the negative logarithm of the EC50 (pEC50) is > 6.70.

For `CN(CCCC(=O)O)c1c(F)cc(-c2cccc(OCC3CC3)n2)cc1F` [Example 493, 4-[4-[6-(cyclopropylmethoxy)-2-pyridyl]-2,6-difluoro-N-methyl-anilino]butanoic acid], the pEC50 is > 6.70.

On to `O=C(O)CCCOc1c(F)cc(-c2cccc(COCC3CC3)n2)cc1F` [Example 388, 4-[4-[6-(cyclopropylmethoxymethyl)-2-pyridyl]-2,6-difluoro-phenoxy]butanoic acid], for which the pEC50 was 5.70 to 6.70.

As for `CC1(C)Cc2c(cccc2-c2ccc(OCCCC(=O)O)cc2)O1` [Example 193, 4-[4-(2,2-dimethyl-2,3-dihydro-benzofuran-4-yl)-phenoxy]-butyric acid], the pEC50 is > 6.70.

Take `O=C(O)CCC1CC1c1c(F)cc(-c2cccnc2OC2CCCC2)cc1F` (centres unmarked) [Example 175, 3-{2-[4-(2-cyclopentyloxy-pyridin-3-yl)-2,6-difluoro-phenyl]-cyclopropyl}-propanoic acid]: the negative logarithm of the EC50 (pEC50) was > 6.70.

Consider `O=C(O)CCCOc1ccc(-c2cccnc2SC2CCCC2)cc1F` [Example 236, 4-[4-(2-cyclopentylsulfanyl-pyridin-3-yl)-2-fluoro-phenoxy]-butyric acid], for which the pEC50 is > 6.70.

With `O=C(O)CC1CCN(c2c(F)cc(-n3ncc4ccc(OC5CCC5)cc43)cc2F)CC1` [Example 487, 2-[1-[4-[6-(cyclobutoxy)indazol-1-yl]-2,6-difluoro-phenyl]-4-piperidyl]acetic acid], the pEC50 is 5.70 to 6.70.

Consider `O=C(O)CCCOc1c(F)cc(-n2ccc3c(F)cccc32)cc1F` [Example 471, 4-[2,6-difluoro-4-(4-fluoroindol-1-yl)phenoxy]butanoic acid], for which the pEC50 was > 6.70.

For the origin of these results see patent US11261186B2, “Biaryl derivative as GPR120 agonist” (LG CHEM, LTD., priority 2014, dated 2022).
